Results reported in ChEMBL document CHEMBL3886764, “Acetamide derivatives” (2016).

Biological target: Transient receptor potential cation channel subfamily A member 1 (Homo sapiens, UniProt O75762)
Assay: Dose Response Assay: Compound plates were resuspended with 100 ul of HBSS/20 mM HEPES/0.005% BSA buffer (Compound Buffer): column 1A-H: buffer/DMSO (bk); column 2A-H: AP-18 (control antagonist for CHOK1 TRPA1 cells); column 1I-P: ATP (control for CHOK1 teton cells); column 2 I-P: 2APB (control antagonist for CHOK1/TRPM8 cells). Growth media was removed from the cell plates (20 ul) and 20 ul of the Replacement Buffer was added followed by addition of 25 ul of diluted dye. All three steps were performed using a Plate Washer BioTek 407. The plates were then incubated for 30' at RT. After incubation, both the cell and compound plates were brought to the FLIPR and 20 ul of the diluted compounds/antagonist/bk were transferred to the cell plates by the FLIPR. Plates were then incubated for 30' at room temperature. After 30' incubation, plates were returned to the FLIPR and 20 ul of 4.5× Cinnamaldehyde was added to the cell plates. During the compound addition as well as agonist addition, fluorescence readings were taken simultaneously from all 384 wells of the cell plate every 1.5 seconds. Five readings were taken to establish a stable baseline, then 20 ul of sample was rapidly (30 ul/sec) and simultaneously added to each well of the cell plate. […]

Sequence of Transient receptor potential cation channel subfamily A member 1 (O75762 whole entry): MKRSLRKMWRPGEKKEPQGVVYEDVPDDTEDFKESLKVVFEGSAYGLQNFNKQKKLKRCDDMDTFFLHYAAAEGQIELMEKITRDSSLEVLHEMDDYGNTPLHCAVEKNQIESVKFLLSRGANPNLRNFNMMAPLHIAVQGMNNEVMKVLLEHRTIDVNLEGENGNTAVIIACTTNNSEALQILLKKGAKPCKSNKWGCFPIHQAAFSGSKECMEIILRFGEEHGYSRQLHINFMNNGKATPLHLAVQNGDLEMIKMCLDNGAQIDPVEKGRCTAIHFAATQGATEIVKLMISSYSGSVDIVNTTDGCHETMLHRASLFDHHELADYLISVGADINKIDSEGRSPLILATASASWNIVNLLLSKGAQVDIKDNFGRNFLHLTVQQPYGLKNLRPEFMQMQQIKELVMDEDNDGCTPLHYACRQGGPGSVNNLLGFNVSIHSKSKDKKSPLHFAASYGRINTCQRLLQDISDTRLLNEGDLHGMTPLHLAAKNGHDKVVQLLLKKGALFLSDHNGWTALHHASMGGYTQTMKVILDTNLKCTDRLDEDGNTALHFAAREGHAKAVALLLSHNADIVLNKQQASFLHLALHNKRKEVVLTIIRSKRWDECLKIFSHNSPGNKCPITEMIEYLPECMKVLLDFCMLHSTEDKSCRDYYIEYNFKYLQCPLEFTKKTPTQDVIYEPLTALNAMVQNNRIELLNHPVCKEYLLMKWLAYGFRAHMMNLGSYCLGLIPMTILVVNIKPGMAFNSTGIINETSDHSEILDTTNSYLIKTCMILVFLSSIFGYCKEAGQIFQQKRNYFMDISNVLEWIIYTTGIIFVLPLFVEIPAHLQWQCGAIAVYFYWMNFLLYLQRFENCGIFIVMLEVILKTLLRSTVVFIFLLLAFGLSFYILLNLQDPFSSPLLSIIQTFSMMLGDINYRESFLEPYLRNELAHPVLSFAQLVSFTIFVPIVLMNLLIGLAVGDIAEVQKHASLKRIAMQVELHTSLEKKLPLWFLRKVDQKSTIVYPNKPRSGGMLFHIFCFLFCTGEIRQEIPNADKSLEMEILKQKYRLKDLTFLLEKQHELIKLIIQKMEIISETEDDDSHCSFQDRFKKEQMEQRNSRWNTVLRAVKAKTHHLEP

IC50: 1520 nM
SMILES: CN(CC(=O)NCC1CN(c2ccc(C(F)(F)F)cc2)CCO1)S(=O)(=O)c1ccc(F)cc1 (stereo unspecified)
